Laboratory results: ChEMBL document CHEMBL5356972, “Design and synthesis of cantharidin derivative DCZ5418 as a TRIP13 inhibitor with anti-multiple myeloma activity in vitro and in vivo” (Bioorg Med Chem Lett, 2024)
Active and inactive are the calls of the source. The calls are words filed in the database; no cut-off is given here.

Tests used:
[1] = Inhibition of cell growth in human H929R cells at 10 uM incubated for 48 hrs by CCK-8 assay relative to control; type: functional
[2] = molecular target: T1, Pachytene checkpoint protein 2 homolog (Homo sapiens) (UniProt Q15645); assay: Binding affinity to TRIP13 (unknown origin) by SPR analysis
T1 sequence (whole entry): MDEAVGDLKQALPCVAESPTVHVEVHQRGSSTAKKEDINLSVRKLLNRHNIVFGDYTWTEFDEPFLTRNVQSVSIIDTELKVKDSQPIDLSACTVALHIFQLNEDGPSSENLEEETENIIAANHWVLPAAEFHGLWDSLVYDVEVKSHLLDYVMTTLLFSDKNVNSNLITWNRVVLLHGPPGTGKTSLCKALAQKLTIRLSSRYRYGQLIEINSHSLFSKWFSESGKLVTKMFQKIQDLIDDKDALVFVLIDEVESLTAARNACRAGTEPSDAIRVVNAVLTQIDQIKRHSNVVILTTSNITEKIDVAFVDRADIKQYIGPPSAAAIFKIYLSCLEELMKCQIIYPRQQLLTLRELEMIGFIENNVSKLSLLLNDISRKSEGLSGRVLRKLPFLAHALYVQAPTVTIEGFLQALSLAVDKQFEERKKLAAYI

[3] = Acute toxicity in mouse assessed as kidney injury at 50 mg/kg, ip; type: organism-based; settings: in vivo
[4] = Acute toxicity in mouse assessed as reduction in spontaneous activities at 50 mg/kg, ip; type: organism-based; settings: in vivo
[5] = Acute toxicity in mouse assessed as liver injury at 50 mg/kg, ip; type: organism-based; settings: in vivo
[6] = Inhibition of cell growth in human OCI-My5 cells incubated for 48 hrs by CCK-8 assay; settings: OCI-My5, 48 h
[7] = Toxicity in immunodeficient nude mouse xenografted with human H929R cells assessed as reduction in body weight at 25 mg/kg, ip administered once daily for 16 days; type: organism-based; settings: in vivo, 384 h, time 16 day
[8] = Inhibition of cell growth in human H929R cells incubated for 48 hrs by CCK-8 assay
[9] = Inhibition of cell growth in human ARP-1 cells incubated for 48 hrs by CCK-8 assay; settings: ARP-1, 48 h
[10] = molecular target: T2, Pachytene checkpoint protein 2 homolog (Homo sapiens, UniProt Q15645); assay: Binding affinity to TRIP13 (unknown origin) assessed as dissociation constant by SPR analysis
T2 sequence (Q15645 whole entry): T1 sequence (whole entry)

[11] = Acute toxicity in mouse assessed as abnormal behaviors at 50 mg/kg, ip; type: organism-based; settings: in vivo
[12] = Acute toxicity in mouse assessed as heart injury at 50 mg/kg, ip; type: organism-based; settings: in vivo
[13] = Inhibition of cell growth in human CD138-positive cells at 20 uM incubated for 48 hrs by CCK-8 assay relative to control; type: functional
[14] = tested on: H929R; assay: Inhibition of cell growth in human H929R cells at 10 uM incubated for 48 hrs by CCK-8 assay; type: functional, cell-based
[15] = Toxicity in immunodeficient nude mouse xenografted with human H929R cells assessed as reduction in body weight at 15 mg/kg, ip administered once daily for 16 days; type: organism-based; settings: in vivo, 384 h, time 16 day
[16] = tested on: H929R; assay: Antitumor activity against human H929R cells xenografted in immunodeficient nude mouse assessed as reduction in tumor growth at 15 mg/kg, ip administered once daily for 16 days by vernier caliper method; type: functional, organism-based; settings: time 16.0 day

In the case of `O=C(NCCCO)C1CCCCC1C(=O)Nc1ccc(Cc2ccncc2)cc1` (stereo unspecified), the inhibition at 10 µM [1] is reported as 6.9%.
For `C[C@@]12C(=O)OC(=O)[C@]1(C)[C@H]1CC[C@@H]2O1` [CANTHARIDIN], the Activity [2] was “inactive”, the Activity [3] was “Toxic” and the Activity [4] was “Toxic”. For the same compound, the Activity [5] was “Toxic”.
With `O=C1C2C3C=CC(C4CC34)C2C(=O)N1c1ccc(Cc2ccncc2)cc1` (stereo unspecified) the IC50 [6] was 5.12 µM, the Activity [7] was “Non-Toxic” and the IC50 [8] was 1.35 µM. It also gave an inhibition at 10 µM [1] of 28.2% and an IC50 [9] of 4.13 µM.
`O=C1C2C3C=C(Br)C(O3)C2C(=O)N1c1ccc(Cc2ccncc2)cc1` (stereo unspecified) showed a Kd [10] of 149 µM and an inhibition at 10 µM [1] of 51.7%.
`O=C(NCCCO)C1C2C=CC(O2)C1C(=O)Nc1ccc(Cc2ccncc2)cc1` (stereo unspecified) gave an inhibition at 10 µM [1] of 21.2%.
With `C[C@@]12C(=O)N(c3ccc(Cc4ccncc4)cc3)C(=O)[C@]1(C)[C@H]1CC[C@@H]2O1` [listing 1 of 2 here] the IC50 [6] was 4.32 µM, the Activity [3] was “Non-Toxic” and the Activity [11] was “Non-Toxic”. The Activity [12] was “Non-Toxic”, the IC50 [8] was 8.47 µM and the inhibition at 10 µM [1] was 49.3%. The IC50 [9] was 3.18 µM, the inhibition at 20 µM [13] was 57% and the Activity [5] was “Non-Toxic”.
For `CN1CCN(C(=O)C2CCCCC2C(=O)Nc2ccc(Oc3ccncc3)cc2)CC1` (stereo unspecified), the inhibition [14] was “Active”.
With `O=C1C2C3CCC(C3)C2C(=O)N1c1ccc(Cc2ccncc2)cc1` (stereo unspecified) the Activity [2] was “inactive” and the inhibition at 10 µM [1] was 41.4%.
Work on `CN1CCN(C(=O)C2C3C=CC(O3)C2C(=O)Nc2ccc(Cc3ccncc3)cc2)CC1` (stereo unspecified) yielded an inhibition at 10 µM [1] of 29.8%.
With `O=C1C2C3C=C(Br)C(O3)C2C(=O)N1c1ccc(Oc2ccncc2)cc1` (stereo unspecified) the inhibition [14] was “Active”.
In the case of `C[C@@]12C(=O)N(c3ccc(Cc4ccncc4)cc3)C(=O)[C@]1(C)[C@H]1CC[C@@H]2O1.Cl`, the Activity [15] is reported as “Non-Toxic”.
`CN1CCN(C(=O)C2CCCCC2C(=O)Nc2ccc(Cc3ccncc3)cc2)CC1` (stereo unspecified) gave an inhibition at 10 µM [1] of 17.2%.
Work on `CN1CCN(C(=O)C2C3C=C(Br)C(O3)C2C(=O)Nc2ccc(Cc3ccncc3)cc2)CC1` (stereo unspecified) yielded an inhibition at 10 µM [1] of 43.1%.
With `C[C@@]12C(=O)N(c3ccc(Cc4ccncc4)cc3)C(=O)[C@]1(C)[C@H]1CC[C@@H]2O1` [listing 2 of 2 here] the Activity [16] was “Active”.
